Like-named read-outs stand apart in the source and are kept apart here.
Legend:
[1] = Solubility limit assay (turbidity, DMEM-F12 + 10% FBS); format: physicochemical; conditions: pH 7.4, DMEM-F12 with 10% FBS, 1% DMSO, upper limit 200 µM
Description: Compound solubility limits were tested in DMEM-F12 without phenol red (Gibco, Grand Island, NY, USA) supplemented with 10% FBS (pH 7.2–7.4) to mimic cell culture experiments, as we have performed previously. Compounds were serially diluted in buffer at pH 7.4 in 384-well, optically clear plates (upper limit 200 µM, DMSO 1%) and read on a plate reader at 620 nm. Compound concentration (µM) was plotted against optical density (OD) and a solubility limit was determined by identifying an inflection point where there was a significant increase in optical density due to increasing turbidity; the concentration of the compound at the inflection point was defined as the solubility limit. Two or more replicate assays were performed on different days for each compound.

[2] = Parallel artificial membrane permeability assay; format: in vitro ADME; design: key to Papp Interpretation: High rate of apparent passive permeability (>1 × 10^−6 cm/s); Low rate of apparent passive permeability (<1 × 10^−6 cm/s); INS: Compound was insoluble in 100% DMSO; conditions: for Papp Interpretation: pH 7.4; for Papp: pH 7.4, 200 μM; for Papp / Papp at 2 h, 200 µM: 2 h, room temperature; for Papp interpretation (high/low permeability category) at 2 h, 200 µM / Papp at 2 h, 200 µM: PAMPA; for Papp interpretation (high/low permeability category) at 2 h, 200 µM: pH 7.4, pH 7.4; for Papp at 2 h, 200 µM: pH 7.4, pH 7.4, 200 μM
Description: Apparent passive permeability (Papp) was assessed at pH 7.4 using a 96-well donor/acceptor cassette (Sigma Aldrich, Burlington, MA, USA), which mimics the apical and basolateral sides of the small intestine epithelium, as we have described previously. Briefly, an artificial membrane composed of 1% w/v lethicin/dodecane was added to the poly (vinylidene fluoride) (PVDF) membrane filter. Once dry, compounds (200 μM) were diluted in buffer at pH 7.4 and added to the donor side of the membrane, and the same pH buffer was added to the acceptor side. The cassette was assembled and incubated at room temperature with shaking at 250 rpm for 2 h, after which 100 μL of the acceptor well was retrieved and the experimental compound absorbance was read on a plate reader between 200 and 600 nm. Compound Papps (cm/s) values were determined by normalizing to the compound absorbance at equilibrium, incubation time, and membrane porosity Two or more replicate assays were conducted on different days.

[3] = test system: HBV replication; experiment: qPCR HBV replication inhibition assay in HepDES19 cells; format: cell-based, Hepatitis B virus (HBV) genotype D; conditions: 72 h, (+) DNA qPCR
Description: (§1) HepDES19 cells were incubated on collagen-coated plates at 37 °C with 5% CO2 and saturating humidity in Dulbecco’s modified Eagle’s medium (DMEM/F12) (Cytiva Life Sciences, Marlborough, MA, USA) supplemented with 10% fetal bovine serum (FBS), penicillin (100 IU/mL), and streptomycin (100 µg/mL). HepDES19 cells are HepG2 cells that carry a stably transfected HBV genotype D genome under the control of a tetracycline repressible promoter. Cells were maintained in the presence of 1 µg/mL tetracycline to repress the expression of the stably integrated HBV genome, and HBV replication was induced by the withdrawal of tetracycline from the culture medium.
HBV replication inhibition was measured in HepDES19 cells induced to replicate HBV by the removal of tetracycline using a strand-preferential quantitative PCR assay as previously described. Cells were seeded at 4 × 10^4 cells/well in 96-well plates for 48 h. Serially diluted compound was then added to cells at a final concentration of 1% DMSO for 72 h, after which the cells were lysed and qPCR was performed as described in Li et al.. EC50 values were calculated from the (+) DNA data with GraphPad Prism using the four-parameter log (inhibitor) versus response algorithm with the bottom value set to zero. Three or more replicate assays were performed on different days.

[4] = MTS cytotoxicity assay; format: cell-based; conditions: human, HepDES19 cells
Description: as §1
Cell viability was assessed using the CellTiter 96^TM Aqueous Non-Radioactive Cell Proliferation assay (MTS) (Promega, Madison, WI, USA) as described previously. HepDES19 cells were seeded at 1 × 10^4 cells per well in 96-well, and compound was added after 48 h. Cells incubated with serially diluted compound (1% DMSO) for 72 h. Bac absorbance values were subtracted, and data were converted to percent cell viability. The cytotoxic concentration 50% (CC50) values were calculated with GraphPad Prism by using the four-parameter variable response log (inhibitor) versus response algorithm with the bottom value set to zero. Three or more replicate assays were performed on different days.

[5] = Hepatitis B virus, read-out: EC50
[6] = DMEM-F12 without phenol red with 10% FBS, plasma or biological fluid, kinetic from dmso stock

With “2,6-Diamino-4-(3-methoxyphenoxy)-1,6-dihydropyrimidine 1-oxide [Compound 55]” the solubility [1] was > 200 µM, the “Papp Interpretation” value [2] was “H (High rate of apparent passive permeability (>1 × 10^−6 cm/s))” and the Papp [2] was 6.17 ×10⁻⁶ cm/s.
In the case of `CSc1ccc(CON=C(C)c2c(C)cc(=O)n(O)c2O)cc1` [Compound 33, 1,6-Dihydroxy-4-methyl-5-(1-(((4(methylthio)benzyl)oxy)imino)ethyl)pyridin-2(1H)-one], the EC50 [3, 5] is reported as 1.4 ± 0.7 µM, the CC50 at 72 h [4] is reported as 100 µM and the solubility [1, 6] is reported as > 200 µM. The Papp interpretation (high/low permeability category) at 2 h, 200 µM [2] was > 1 ×10⁻⁶ cm/s, the Papp at 2 h, 200 µM [2] was 4.35 ×10⁻⁶ cm/s and the melting point was 110 to 115 °C (dec.).
With `COC(=O)c1ccc(C(C)ON=C(C)c2c(C)cc(=O)n(O)c2O)cc1` (centres unmarked) [Compound 34, Methyl-4-(1-(((1-(1,2-dihydroxy-4-methyl-6-oxo-1,6-dihydropyridin-3-yl)ethylidene)amino)oxy)ethyl)benzoate] the EC50 [3, 5] was 6.3 ± 5.5 µM, the CC50 at 72 h [4] was 96 ± 5.7 µM and the solubility [1, 6] was 50 µM. The Papp interpretation (high/low permeability category) at 2 h, 200 µM [2] was > 1 ×10⁻⁶ cm/s, the Papp at 2 h, 200 µM [2] was 2.5 ×10⁻⁶ cm/s and the melting point was 130 °C (dec.).
Work on `COc1cccc(CON=C(C)c2c(C)cc(=O)n(O)c2O)c1` [Compound 35, 1,6-Dihydroxy-5-(1-(((3-methoxybenzyl)oxy)imino)ethyl)-4-methylpyridin-2(1H)-one] yielded an EC50 [3, 5] of 1.9 ± 1.2 µM, a CC50 at 72 h [4] of 90 ± 14.1 µM and a solubility [1, 6] of 117 µM. For the same molecule, the Papp interpretation (high/low permeability category) at 2 h, 200 µM [2] was > 1 ×10⁻⁶ cm/s, the Papp at 2 h, 200 µM [2] was 6.19 ×10⁻⁶ cm/s and the melting point was 120 to 122 °C (dec.).
`COC(=O)c1cc(Cl)c(CON=C(C)c2c(C)cc(=O)n(O)c2O)c(Cl)c1` [Compound 36, Methyl 3,5-dichloro-4-((((1-(1,2-dihydroxy-4-methyl-6-oxo-1,6-dihydropyridin-3-yl)ethylidene)amino)oxy)methyl)benzoate] showed an EC50 [3, 5] of 3.1 ± 0.4 µM, a CC50 at 72 h [4] of 100 µM and a solubility [1, 6] of 163 µM. The Papp interpretation (high/low permeability category) at 2 h, 200 µM [2] was > 1 ×10⁻⁶ cm/s, the Papp at 2 h, 200 µM [2] was 4.35 ×10⁻⁶ cm/s and the melting point was 117 to 119 °C (dec.).
`CC(=NOC(CNC(=O)c1ccco1)c1cc(F)cc(F)c1)c1c(C)cc(=O)n(O)c1O` (centres unmarked) [Compound 37, N-(2-(3,5-Difluorophenyl)-2-(((1-(1,2-dihydroxy-4-methyl-6-oxo-1,6-dihydropyridin-3-yl)ethylidene)amino)oxy)ethyl)furan-2-carboxamide] gave an EC50 [3, 5] of 4.7 ± 3 µM, a CC50 at 72 h [4] of 100 µM and a solubility [1, 6] of 175 µM. For the same molecule, the Papp interpretation (high/low permeability category) at 2 h, 200 µM [2] was > 1 ×10⁻⁶ cm/s, the Papp at 2 h, 200 µM [2] was 4.96 ×10⁻⁶ cm/s and the melting point was 118 to 120 °C (dec.).
For `CC(=NOC(c1cc(F)cc(F)c1)c1ccccn1)c1c(C)cc(=O)n(O)c1O` (centres unmarked) [Compound 38, 5-(1-(((3,5-Difluorophenyl)(pyridin-2-yl)methoxy)imino)ethyl)-1,6-dihydroxy-4-methylpyridin-2(1H)-one], the EC50 [3, 5] was 2.3 ± 0.2 µM, the CC50 at 72 h [4] was 47.1 ± 21.7 µM and the solubility [1, 6] was 167 µM. The Papp interpretation (high/low permeability category) at 2 h, 200 µM [2] was > 1 ×10⁻⁶ cm/s, the Papp at 2 h, 200 µM [2] was 2.61 ×10⁻⁶ cm/s and the melting point was 102 to 104 °C (dec.).
With `CC(=NOCc1ccc(O)cc1)c1c(C)cc(=O)n(O)c1O` [Compound 39, 1,6-Dihydroxy-5-(1-(((4-hydroxybenzyl)oxy)imino)ethyl)-4-methylpyridin-2(1H)-one] the EC50 [3, 5] was 5.2 ± 0.9 µM, the CC50 at 72 h [4] was 91.1 ± 14.3 µM and the solubility [1, 6] was > 200 µM. For the same molecule, the Papp interpretation (high/low permeability category) at 2 h, 200 µM [2] was > 1 ×10⁻⁶ cm/s, the Papp at 2 h, 200 µM [2] was 5.21 ×10⁻⁶ cm/s and the melting point was 98 to 100 °C (dec.).
With `C#CCCCON=C(C)c1c(C)cc(=O)n(O)c1O` [Compound 40, 1,6-Dihydroxy-4-methyl-5-(1-((pent-4-yn-1-yloxy)imino)ethyl)pyridin-2(1H)-one] the EC50 [3, 5] was 2.5 ± 0.6 µM, the CC50 at 72 h [4] was 53.6 ± 31.4 µM and the solubility [1, 6] was > 200 µM. The Papp interpretation (high/low permeability category) at 2 h, 200 µM [2] was > 1 ×10⁻⁶ cm/s, the Papp at 2 h, 200 µM [2] was 3.36 ×10⁻⁶ cm/s and the melting point was 93 to 95 °C (dec.).
In the case of `C#CCCON=C(C)c1c(C)cc(=O)n(O)c1O` [Compound 41, 5-(1-((But-3-yn-1-yloxy)imino)ethyl)-1,6-dihydroxy-4-methylpyridin-2(1H)-one], the EC50 [3, 5] is reported as 1.2 ± 0.2 µM, the CC50 at 72 h [4] is reported as 57.5 ± 32.4 µM and the solubility [1, 6] is reported as > 200 µM. For the same molecule, the Papp interpretation (high/low permeability category) at 2 h, 200 µM [2] was > 1 ×10⁻⁶ cm/s, the Papp at 2 h, 200 µM [2] was 2.24 ×10⁻⁶ cm/s and the melting point was 86 to 89 °C (dec.).
`C#CCON=C(C)c1c(C)cc(=O)n(O)c1O` [Compound 42, 1,6-Dihydroxy-4-methyl-5-(1-((prop-2-yn-1-yloxy)imino)ethyl)pyridin-2(1H)-one] showed an EC50 [3, 5] of 5.4 ± 2.2 µM, a CC50 at 72 h [4] of 81.7 ± 18.6 µM and a solubility [1, 6] of 167 µM. The Papp interpretation (high/low permeability category) at 2 h, 200 µM [2] was > 1 ×10⁻⁶ cm/s, the Papp at 2 h, 200 µM [2] was 3.74 ×10⁻⁶ cm/s and the melting point was 78 to 80 °C (dec.).
With `COC(=O)c1ccc(CON=C(C)c2c(C)cc(=O)n(O)c2O)c(C#N)c1` [Compound 44, 2′-Cyano-4′-((((1′-(1,2-dihydroxy-4-methyl-6-oxo-1,6-dihydropyridin-5-yl)ethylidene)amino)oxy)methyl)methyl benzoate] the EC50 [3, 5] was 7.7 ± 1.4 µM, the CC50 at 72 h [4] was 91.9 ± 11.2 µM and the solubility [1, 6] was > 200 µM. The Papp interpretation (high/low permeability category) at 2 h, 200 µM [2] was > 1 ×10⁻⁶ cm/s, the Papp at 2 h, 200 µM [2] was 5.42 ×10⁻⁶ cm/s and the melting point was 115 °C.
In the case of `COC(=O)c1ccc(CON=C(C)c2c(C)cc(=O)n(O)c2O)c(F)c1` [Compound 45, Methyl 4-((((1-(1,2-dihydroxy-4-methyl-6-oxo-1,6-dihydropyridin-3-yl)ethylidene)amino)oxy)methyl)-3-fluorobenzoate], the EC50 [3, 5] is reported as 3.2 ± 0.4 µM, the CC50 at 72 h [4] is reported as 90.2 ± 13.8 µM and the solubility [1, 6] is reported as > 200 µM. The Papp interpretation (high/low permeability category) at 2 h, 200 µM [2] was > 1 ×10⁻⁶ cm/s, the Papp at 2 h, 200 µM [2] was 3.54 ×10⁻⁶ cm/s and the melting point was 130 °C (dec.).
For `Nc1cc(Oc2cc(Cl)c(Cl)cc2Cl)nc(N)[n+]1[O-]` [Compound 56, 2,6-Diamino-4-(2′,4′,5′-trichloro)-1,6-dihydropyrimidine 1-oxide], the EC50 [3, 5] was > 100 µM, the solubility [1, 6] was 167 µM and the Papp interpretation (high/low permeability category) at 2 h, 200 µM [2] was > 1 ×10⁻⁶ cm/s. The Papp at 2 h, 200 µM [2] was 3.85 ×10⁻⁶ cm/s and the melting point was 135 °C.
In the case of `Nc1cc(Oc2ccc(Cl)cc2Cl)nc(N)[n+]1[O-]` [Compound 57, 2,6-Diamino-4-(2′,4′-dichloro)-1,6-dihydropyrimidine 1-oxide], the EC50 [3, 5] is reported as > 100 µM, the solubility [1, 6] is reported as 100 µM and the Papp interpretation (high/low permeability category) at 2 h, 200 µM [2] is reported as > 1 ×10⁻⁶ cm/s. The Papp at 2 h, 200 µM [2] was 2.99 ×10⁻⁶ cm/s and the melting point was 160 °C.
For `COc1ccc(COc2cc(N)[n+]([O-])c(N)n2)cc1` [Compound 58, 2,6-Diamino-4-((4-methoxybenzyl)oxy)pyrimidine 1-oxide], the EC50 [3, 5] was > 100 µM, the solubility [1, 6] was > 200 µM and the Papp interpretation (high/low permeability category) at 2 h, 200 µM [2] was > 1 ×10⁻⁶ cm/s. For the same molecule, the Papp at 2 h, 200 µM [2] was 2.56 ×10⁻⁶ cm/s and the melting point was > 250 °C.
With `COC(=O)c1ccc(CO/N=C(\C)C2C(=O)NC(=O)NC2=O)cc1` [Compound 59, Methyl 4′-((((1-(2,4,6-Trioxohexahydropyrimidin-5-yl)ethylidene)amino)oxy)methyl)benzoate] the EC50 [3] was “lacked any inhibitory activity”, the “Solubility Limit” value [1] was “INS” and the “Papp Interpretation” value [2] was “INS”. The Papp [2] was “INS” and the melting point was > 250 °C.
